Measured values: patent US20250129101A1, “Compound, Pharmaceutical Composition Comprising the Same and Method for Treating Cancer Using the Same” (NATIONAL TSING HUA UNIVERSITY, priority 2023, published 2025)

Tests used:
[1] = target: T1, KIF2C (Homo sapiens, UniProt Q99661); assay: In vitro validation: KIF2C kinesin activity, malachite green-based phosphate colorimetric assay; assay type: biochemical
T1 construct: KIF2C (216-598 a.a.); 6xHis (C); made in house; host or cells: E. coli BL21 (DE3), pET-28a
How it was run: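 KIF2C sN+M construct (aa 216-598, C-terminal 6×His, E. coli-expressed) ATPase activity with microtubules from porcine brain tubulin or HEK293 (293Fs) cells in BRB80 (80 mM PIPES pH 6.8, 1 mM GTP, 10% DMSO), 37° C for 2 hr. Released phosphate detected by malachite green reagent, 10 min, A650.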

[2] = system: 4T1 cells; assay: Flow cytometry analysis of cell membrane penetration ability; assay type: cell-based, mouse; conditions: 2 hr of drug treatment
Protocol: To quantify the cell membrane penetration ability of different DHTP analogs, 4T1 cells were collected by trypsin after 2 hr of drug treatment and then transferred into microcentrifuge tubes. 4T1 cells were then resuspended into the FACS buffer (1% FBS, 2 mM EDTA, and 0.05% NaN3 in PBS). After two times of FACS buffer rinsing, these samples were detected by flow cytometry (Cyto FLEX™ FLOW Cytometer). The KO525 (405 nm laser; 525 nm filter) channel was used to detect DHTP and 7S9.

[3] = system: 4T1 R8 cells; assay: Time-lapse imaging of mitotic progression, 4T1 R8 cells; assay type: cell-based, mouse; conditions: 1 μM 7S9 and 400 nM paclitaxel
Protocol: To investigate the role of KIF2C in cell cycle progression, 4T1 cells were cultured in the 4-well chamber slide with about 50% confluence. The culture medium was replaced with a CO2-independent medium (Gibco) supplemented with 10% fetal bovine serum (Biological Industries) and 1% penicillin-streptomycin (Biowest). Then, each well of the chamber slide was treated with indicated drugs, such as DMSO, KIF2C inhibitors, or chemotherapy drugs. After that, the chamber slide was maintained in the microscope stage incubator with the supplement of humidified air with 5% CO2 at 37° C. Multiple-positional time-lapse imaging was performed using an automated Leica DM16000 inverted microscope equipped with HCX PL FL 20×/0.4 and EMCCD camera (Andor Luca R, Belfast, UK). Sequential differential interference contrast (DIC) images of cells obtained at indicated intervals were further analyzed using Metamorph software (Molecular Devices).

[4] = system: 4T1 R8; assay: In vivo tumor growth inhibition, 4T1 R8 syngeneic model; set-up: species or system mouse; conditions: R8 tumors, BALB/c mice, 7S9 50 mg/kg with paclitaxel 15 mg/kg
Protocol: The mice were housed at the National Health Research Institute (NHRI) Animal Center in accordance with the Institutional Animal Care and Use Committee procedures and guidelines. The 4T1-derived cells, including 4T1, 4T1 R4, and 4T1 R8, used for implantation were harvested during log phase growth and resuspended in phosphate-buffered saline. Each mouse was injected s.c. in the right flank with 5×10^5 cells. After tumor size reached 60-100 mm 3 (D1), mice were divided into groups and received treatment with vehicle or different compounds alone or in combinations. Tumor size, in mm 3, was measured twice per week and calculated from Tumor volume=(w 2×1)/2, where w=width and 1=length in mm of the tumor. The values of tumor size were expressed as mean±SEM.

T1 sequence (Q99661 216-598): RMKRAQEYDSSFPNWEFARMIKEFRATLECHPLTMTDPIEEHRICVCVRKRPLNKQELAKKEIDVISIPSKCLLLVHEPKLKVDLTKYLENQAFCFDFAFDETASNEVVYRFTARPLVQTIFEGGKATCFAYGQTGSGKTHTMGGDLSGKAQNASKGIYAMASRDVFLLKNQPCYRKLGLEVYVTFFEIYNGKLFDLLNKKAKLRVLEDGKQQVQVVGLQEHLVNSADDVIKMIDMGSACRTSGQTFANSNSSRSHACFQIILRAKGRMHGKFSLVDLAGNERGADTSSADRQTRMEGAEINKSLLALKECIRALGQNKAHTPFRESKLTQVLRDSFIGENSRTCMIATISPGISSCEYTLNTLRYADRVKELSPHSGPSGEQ

inhibitory effect against KIF2C (in words) ([1]; 50 μM (FIG. 4I)): selective inhibition against KIF2C
inhibition of KIF2C kinesin activity (in words) ([1]; 100 μM (FIG. 4B)): most potent inhibitor of KIF2C
EC50 ([1]; concentration that inhibits 50% of KIF2C activity): < 50 µM
cell penetration, fluorescence signal at 510 nm emission (in words) [2]: good cell-penetrating property
Structure (SMILES): CCN1CCN(C(=O)COc2ccc(/C=c3\sc4n(c3=O)C(c3ccc(Cl)cc3)C(C(=O)OC(C)C)=C(C)N=4)cc2)CC1.O=C(O)/C=C\C(=O)O (stereo not shown) [7S9 (133), isopropyl (Z)-5-(4-chlorophenyl)-2-(4-(2-(4-ethylpiperazin-1-yl)-2-oxoethoxy)benzylidene)-7-methyl-3-oxo-2,3-dihydro-5H-thiazolo[3,2-a]pyrimidine-6-carboxylate maleate]
KIF2C activity in the presence of paclitaxel (in words) ([1]; 100 μM 7S9, 1 μM paclitaxel): could successfully inhibit KIF2C activity in the presence of paclitaxel
mitotic defects, combined treatment (in words) [3]: induced significant defects in mitosis
tumor growth inhibition, combination [4]: 66.2%
